Series [1] can be described thus: Pharmacokinetic properties of test compound in mice (oral). Format: in vivo, C57BL male mice. Conditions: for oral plasma systemic exposures (AUC0-inf), in words / Area under the drug-time curve (0-inf) / Peak concentration / Time to peak: mice; for Area under the drug-time curve (0-inf) / Peak concentration / Time to peak: oral 10 mg/kg, plasma; for pharmacokinetic properties, in words: rodent mice. An excerpt: In this study, C57BL male mice were selected as the test animals. A LC-MS/MS method was used to quantitatively determine the drug concentration in the plasma after oral administration of the test compound and the reference compound, to evaluate the pharmacokinetic profile of the test compound in mice.
C57Balb/c (C57) mice (male, 20-30 g, 7-10 weeks old, Beijing Vital River or Shanghai SLAC).
A clear solution or suspension of the test compound was administrated to C57 mice (fasted overnight) by oral gavage. Blood was collected from jugular vein at pre-dose and 0.5, 1, 2, 4, 6, 8, 24 hours post-dose, the collected blood samples were placed in an anticoagulant tube (Jiangsu Kangjian Medical Co., Ltd.) supplemented with EDTA-K2, and the mixture was vortexed and centrifuged at 13000 rpm for 10 minutes. The LC-MS/MS method was used to determine the plasma concentration of test compounds, and the relevant pharmacokinetic parameters were calculated using non-compartmental model linear logarithmic trapezoidal method by WinNonlinTM Version 6.3 (Pharsight, Mountain View, Calif.).

The test system of a further series is OCI-LY10 cell line. Kind of series: Anti-proliferative effect in lymphoma cell line OCI-LY10 (CellTiter-Glo). The note with it: Homo sapiens, OCI-Ly10, 120 h; incubate with the compound for 5 days. It is filed as cell-based. As for the experimental part: (§1) Experiment object: In this experiment, the inhibitory effects of the test compounds on cell proliferation in the diffuse large B-cell lymphoma cell lines OCI-LY10 and DOHH2, and the mantle cell lymphoma cell line Mino were tested.
(§2) The tumor cell lines were cultured in an incubator at 37° C. and 5% CO2 under the above-mentioned culture conditions. The cells were passaged regularly, and cells in the logarithmic growth phase were taken for planting.
(§3) (1). The cells were stained with trypan blue and live cells were counted.
(§4) (2). The cell concentration was adjusted to an appropriate concentration.
(§5) (3). 90 μL of cell suspension was added to each well of the culture plate as shown in the table above, and cell-free culture solution was added to the blank control well.
(4). The culture plates were incubated overnight at 37° C., 5% CO2, and 100% relative humidity in an incubator. […]
(§6) The following steps followed the instructions of Promega CellTiter-Glo Luminescence Cell Viability Detection Kit (Promega-G7573). […]
(§7) (8). The culture plates were left at room temperature for 10 minutes to stabilize the luminescence signal.
(§8) (9). The luminous signal was detected on the 2104 EnVision plate reader. […]
For orientation: Cellular ATP, detected with luciferase, serves as a proxy for viable cell number.

The next series deals with Mino cell line. Kind of series: Anti-proliferative effect in mantle cell lymphoma cell line Mino (CellTiter-Glo). Format: cell-based. The note with it: Homo sapiens, 96 h, incubate with the compound for 4 days. Here is the method: as §1, §2, §3, §4, §5
(§9) (4). The culture plates were incubated overnight at 37° C., 5% CO2, and 100% relative humidity in an incubator.
(§10) The mother liquor storage plate with a compound concentration of 400 times the working concentration of the compound was prepared: The compound was gradually diluted with DMSO from the highest concentration to the lowest concentration. The compound was freshly formulated when use every time.
(§11) (1). Formulation of a working solution with a compound concentration of […] the working concentration of the compound: 76 μL of cell culture solution was added to a 96-well plate with a V-shaped bottom, and 4 μL of the compound was pipetted from the mother liquor storage plate with a compound concentration of […] the working concentration of the compound to the cell culture solution of the 96-well plate. 4 μL of DMSO was added to the vehicle control and blank control. After adding the compound or DMSO, a multi-channel pipette was used for pipetting and mixing well. […]
as §6, §7, §8

Series [2] relates to human lymphoma OCI-LY10 cells subcutaneous xenograft tumor. Here is the method: Cells culture: Human lymphoma OCI-LY10 cells (National Cancer Institute) were cultured in a monolayer in vitro. The culture conditions were RPMI-1640 medium with 10% fetal bovine serum, 100 U/mL penicillin and […] streptomycin, 37° C., 5% CO2 incubator culture. Conventional digestion treatment with pancreatin-EDTA for passage was carried out twice a week. When the cell saturation was 80% to 90%, and the number reached the requirement, the cells were collected, counted and inoculated.
Animal: CB-17 SCID mouse, female, 6-8 weeks old, weighing 18-22 grams. Protocols:
0.2 mL (10×10^6 cells) of OCI-LY10 cells (with matrigel in a volume ratio of 1:1) were subcutaneously inoculated on the right back of each mouse. The grouping and administration were started when the average tumor volume reached about 139 mm^3. One dosing cycle was seven days, and the compound was administered once a day with an interval of 24 hours. The test compound was administered orally for a total of four cycles. The dose of the test compound WX002 was 60 mg/kg, the tumor volume was measured twice a week with a two-dimensional caliper, and the volume was measured in cubic millimeters, calculated by the following formula: V =0.5a×b^2, in which a and b were the long diameter and short diameter of the tumor, respectively. The anti-tumor efficacy was determined by dividing average increase of tumor volume of animals treated with the compound by that of untreated animals.

A further series concerns DOHH2 cell line. As to the kind of experiment: Anti-proliferative effect in lymphoma cell line DOHH2 (CellTiter-Glo). Format: cell-based. Conditions: Homo sapiens, DOHH-2, 96 h; incubate with the compound for 4 days. Here is the method:
as §1, §2, §3, §4, §5, §9, §10, §11, §6, §7, §8

Setting [3] is: 60 mg/kg oral once a day, Day 27.

SMILES strings stand for the structures. pIC50: −log10 of the molar value. Where a name gives a salt, the structure may show the parent alone.

Six compounds from patent publication US20210317109A1, “TRICYCLIC SUBSTITUTED PIPERIDINE DIONE COMPOUND” (MEDSHINE DISCOVERY INC., priority 2018, published 2021) can be followed below.

A word on the pIC50: it is the negative decadic logarithm of the IC50, by convention in mol/L. Higher therefore signals a low IC50.

Consider `CCOC(=O)Cc1coc2ccc3cc(OCCN(C)C)ccc3c12` [Hydrochloride of WX008], for which, in series [1], the “oral plasma systemic exposures (AUC0-inf), in words” value (shortened to “oral plasma systemic exposures”) is on record as “higher oral plasma systemic exposures”; the “Area under the drug-time curve (0-inf)” value was 10.27 µM·h; the Peak concentration worked out at 4.88 µM; the Time to peak was determined as 1.00 h. The “pharmacokinetic properties, in words” value in series [1] is “better pharmacokinetic properties”.

`O=C1CCC(c2coc3ccc4cc(OCCN5CCOCC5)ccc4c23)C(=O)N1` (centres unmarked) [Hydrochloride of WX020]: in series [1], the “oral plasma systemic exposures” value is “higher oral plasma systemic exposures”; the “Area under the drug-time curve (0-inf)” value came to 18.38 µM·h; the Peak concentration was 8.56 µM; the Time to peak was 0.25 h. Also, in series [1], the “pharmacokinetic properties, in words” value is reported as “better pharmacokinetic properties”.

Compound `O=C1CCC(c2coc3ccc4ccccc4c23)C(=O)N1` (centres unmarked) [WX002] had a negative logarithm of the IC50 (pIC50) in the series with OCI-LY10 cell line of 7.59. This compound also gave a pIC50 in the series with Mino cell line of 8.10. For the same compound, the “Tumor volume (Day 1)” value in series [2] (60 mg/kg oral once a day, Day 1 (start of administration)) was 139 ± 10 mm^3. Further, in series [2] (setting [3]), the “TGI (Day 27)” value is on record as 111% and the “Tumor volume (Day 27)” value is recorded as 35 ± 10 mm^3. In addition, the “effect on the human lymphoma OCI-LY10 in vivo pharmacodynamic model, in words” value in series [2] (mouse, in vivo) is “significant tumor-shrinking effect”. Further, in series [1], the “Area under the drug-time curve (0-inf)” value is 2.49 µM·h, the Peak concentration was 2.83 µM and the Time to peak amounted to 0.50 h. This compound had a pIC50 with DOHH2 cell line of 7.01.

In the series on OCI-LY10 cell line, `O=C1CCC(c2coc3ccc4occc4c23)C(=O)N1` (centres unmarked) [WX004] had a negative-log IC50 (pIC50) of 7.77. This compound had a pIC50 in the series with Mino cell line of 8.15. Moreover, in series [1], the “oral plasma systemic exposures” value is reported as “higher oral plasma systemic exposures”; the “Area under the drug-time curve (0-inf)” value is 5.50 µM·h; the Peak concentration was determined as 6.54 µM; the Time to peak amounted to 0.25 h. In series [1], the “pharmacokinetic properties, in words” value is listed as “better pharmacokinetic properties”. This compound also gave a pIC50 with DOHH2 cell line of 6.84.

In the case of `Cc1cc2c(ccc3occ(C4CCC(=O)NC4=O)c32)o1` (centres unmarked) [WX005], the negative-log IC50 (pIC50) with Mino cell line was 8.00; in the series on DOHH2 cell line it was 6.78.

For `O=C1CCC(c2coc3ccc4[nH]ccc4c23)C(=O)N1` (centres unmarked) [WX007], in series [1], the “oral plasma systemic exposures” value was “higher oral plasma systemic exposures”; the “Area under the drug-time curve (0-inf)” value is 7.79 µM·h; the Peak concentration was determined as 12.95 µM; the Time to peak is reported as 0.08 h. The “pharmacokinetic properties, in words” value in series [1] is on record as “better pharmacokinetic properties”.
